# Where two headings read alike, the source gives them in different places.
# Columns and labels:
# [1] = system: MIF-dependent ERK1/2 phosphorylation; conditions: synovial fibroblasts; for effect on MIF-enhanced ERK phosphorylation (in words): co-administration with MIF, Figure 2
# human MIF [2] = molecular target: T1, human MIF (Homo sapiens, UniProt P14174); conditions: cited from earlier work
# T1 sequence (P14174 2-115 limits assumed): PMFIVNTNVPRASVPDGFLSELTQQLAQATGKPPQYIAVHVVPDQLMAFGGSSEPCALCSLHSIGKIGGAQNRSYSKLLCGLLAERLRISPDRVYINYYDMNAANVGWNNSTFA
# human MIF [3] = molecular target: T1, human MIF; test: Mass spectrometric; conditions: 30 µM each of MIF and compound, one hour at 25 °C
smiles,measurement,setting,value
O=c1c2ccc(O)cc2sn1-c1ccc(Cl)cc1 [1w],reduction of ERK phosphorylation,"[1]; at 100 nM, added with MIF for 30 minutes",20%
same,reduction of ERK phosphorylation,"[1]; at 1 µM, added with MIF for 30 minutes",35%
same,effect on MIF-enhanced ERK phosphorylation (in words),[1],substantial reduction of phosphorylation
N#Cc1ccc(-n2sc3cc(F)ccc3c2=O)cc1 [1c],effect on MIF-enhanced ERK phosphorylation (in words),[1],substantial reduction of phosphorylation
"Ic1cc(-c2ccccc2)ncn1 [4-IPP, 4-iodo-6-phenylpyrimidine]",fraction of the protein (MIF) covalently modified,human MIF [2],ca. 20%
"COC(=O)CC1CC(c2ccc(O)cc2)=NO1 (stereo not shown) [ISO-1, reference compound]",reduction of ERK phosphorylation,"[1]; at 2 µM, racemate",19%
"O=c1c2ccc(F)cc2sn1-c1ccc(Cl)cc1 [1a, 2-(4-chlorophenyl)-6-fluoro-benzo[d]isothiazol-3(2H)-one]",fraction of MIF covalently modified,human MIF [3],ca. 3%
